From patent US8916702B2 (priority 2012, dated 2014)

tested on: HCV pseudoparticles (genotype 1a HCV E1 and E2 envelope, H77C isolate); assay: microbe, parasite or virus in culture; type: cell-based; conditions: Hepatitis C virus, Huh-7, 48 h, HCV pseudoparticle infection of Huh7 cells, luciferase 2 days after infection; average of duplicates

Row | SMILES | EC50
1 | O=C(NCCc1ccc(F)cc1)C(=O)NCC[C@H](NC(=O)c1ccc(Nc2nc(NC3(c4ccc(Cl)cc4)CC3)nc(OCC(F)(F)F)n2)cc1)C(=O)O [Compound 1336] | 0.88 nM
2 | COC(=O)[C@H](CNC(=O)C(=O)Nc1ccc(OC)cc1)NC(=O)c1ccc(Nc2nc(NC3(c4ccc(Cl)cc4)CC3)nc(OCC(F)(F)F)n2)cc1 [Compound 1254] | 0.37 nM
3 | COC(=O)[C@H](CCNC(=O)C(=O)NCCc1cccnc1)NC(=O)c1ccc(Nc2nc(NC3(c4ccc(Cl)cc4)CC3)nc(OCC(F)(F)F)n2)cc1 [Compound 1316] | 0.57 nM
4 | O=C(NCC[C@H](NC(=O)c1ccc(Nc2nc(NC3(c4ccc(Cl)cc4)CC3)nc(OCC(F)(F)F)n2)cc1)C(=O)O)C(=O)NCc1ccccc1 [Compound 1187] | 0.08 nM

same assay, conditions: Hepatitis C virus, Huh-7, 48 h, read-out: Activity (EC50 class), HCV pseudoparticle infection of Huh7 cells, luciferase 2 days after infection; EC50 expressed as class A/B

Row | SMILES | EC50
5 | O=C(NCCc1ccc(F)cc1)C(=O)NCC[C@H](NC(=O)c1ccc(Nc2nc(NC3(c4ccc(Cl)cc4)CC3)nc(OCC(F)(F)F)n2)cc1)C(=O)O [Compound 1336] | 0.01 to 10 nM
6 | COC(=O)[C@H](CCNC(=O)C(=O)NC1CCC(C)CC1)NC(=O)c1ccc(Nc2nc(NC3(c4ccc(Cl)cc4)CC3)nc(OCC(F)(F)F)n2)cc1 (stereo partly drawn) [Compound 1109] | 0.01 to 10 nM
7 | CCOCC1(CNC(=O)C(=O)NCC[C@H](NC(=O)c2ccc(Nc3nc(NC4(c5ccc(Cl)cc5)CC4)nc(OCC(F)(F)F)n3)cc2)C(=O)O)CC1 [Compound 1422] | 0.01 to 10 nM
8 | CN(C(=O)C(=O)NCC(C)(C)CNC(=O)c1ccc(Nc2nc(NC3(c4ccc(Cl)cc4)CC3)nc(OCC(F)(F)F)n2)cc1)c1cccc(F)c1 [Compound 1578] | 0.01 to 10 nM
9 | COC(=O)[C@H](CNC(=O)C(=O)Nc1ccccc1F)NC(=O)c1ccc(Nc2nc(NC3(c4ccc(Cl)cc4)CC3)nc(OCC(F)(F)F)n2)cc1 [Compound 1253] | 0.01 to 10 nM
10 | C[C@@H](NC(=O)C(=O)NCC[C@H](NC(=O)c1ccc(Nc2nc(NC3(c4ccc(Cl)cc4)CC3)nc(OCC(F)(F)F)n2)cc1)C(=O)O)C1CC1 [Compound 1420] | 0.01 to 10 nM
11 | COC(=O)[C@H](CNC(=O)C(=O)Nc1ccc(OC)cc1)NC(=O)c1ccc(Nc2nc(NC3(c4ccc(Cl)cc4)CC3)nc(OCC(F)(F)F)n2)cc1 [Compound 1254] | 0.01 to 10 nM
12 | COC(=O)[C@H](CCNC(=O)C(=O)NC(C)(C)Cc1ccc(F)cc1)NC(=O)c1ccc(Nc2nc(NC3(c4ccc(Cl)cc4)CC3)nc(OCC(F)(F)F)n2)cc1 [Compound 1319] | 0.01 to 10 nM
13 | COC(=O)[C@H](CCNC(=O)C(=O)NCCc1cccnc1)NC(=O)c1ccc(Nc2nc(NC3(c4ccc(Cl)cc4)CC3)nc(OCC(F)(F)F)n2)cc1 [Compound 1316] | 0.01 to 10 nM
14 | CC(C)(C)OC(=O)NC1CCCC(NC(=O)C(=O)NCC[C@H](NC(=O)c2ccc(Nc3nc(NC4(c5ccc(Cl)cc5)CC4)nc(OCC(F)(F)F)n3)cc2)C(=O)O)C1 (stereo partly drawn) [Compound 1111] | 0.01 to 10 nM
15 | COC(=O)[C@H](CNC(=O)C(=O)Nc1cnn(C)c1)NC(=O)c1ccc(Nc2nc(NC3(c4ccc(Cl)cc4)CC3)nc(OCC(F)(F)F)n2)cc1 [Compound 1248] | 0.01 to 10 nM
16 | O=C(NCC[C@@H](NC(=O)c1ccc(Nc2nc(NC3(c4ccc(Cl)cc4)CC3)nc(OCC(F)(F)F)n2)cc1)C(=O)O)C(=O)Nc1ccccc1-c1ccccc1 [Compound 1532] | 0.01 to 10 nM
17 | COc1ccccc1CCNC(=O)C(=O)NCC[C@H](NC(=O)c1ccc(Nc2nc(NC3(c4ccc(Cl)cc4)CC3)nc(OCC(F)(F)F)n2)cc1)C(=O)O [Compound 1329] | 0.01 to 10 nM
18 | O=C(NCC[C@@H](NC(=O)c1ccc(Nc2nc(NC3(c4ccc(Cl)cc4)CC3)nc(OCC(F)(F)F)n2)cc1)C(=O)O)C(=O)Nc1cccc(F)c1F [Compound 1530] | 0.01 to 10 nM
19 | COC(=O)[C@H](CNC(=O)C(=O)NCCc1ccncc1)NC(=O)c1ccc(Nc2nc(NC3(c4ccc(Cl)cc4)CC3)nc(OCC(F)(F)F)n2)cc1 [Compound 1288] | 0.01 to 10 nM
20 | O=C(NCC[C@H](NC(=O)c1ccc(Nc2nc(NC3(c4ccc(Cl)cc4)CC3)nc(OCC(F)(F)F)n2)cc1)C(=O)O)C(=O)NCc1ccccc1 [Compound 1187] | 0.01 to 10 nM

same assay, conditions: Hepatitis C virus, Huh-7, 48 h, read-out: Activity (EC50 class), HCV pseudoparticles, Huh7 cells, luciferase 2 days after infection; average of duplicates

Row | SMILES | EC50
21 | COC(=O)[C@H](CNC(=O)C(=O)Nc1cccc(C(N)=O)c1)NC(=O)c1ccc(Nc2nc(NC3(c4ccc(Cl)cc4)CC3)nc(OCC(F)(F)F)n2)cc1 [Compound 3689] | 0.01 to 10 nM
22 | N#Cc1cccc(NC(=O)C(=O)NC[C@H](NC(=O)c2ccc(Nc3nc(NC4(c5ccc(Cl)cc5)CC4)nc(OCC(F)(F)F)n3)cc2)C(=O)Cl)c1 [Compound 3740] | 0.01 to 10 nM

same assay, conditions: Hepatitis C virus, Huh-7, read-out: Activity (EC50 class), HCV pseudoparticles (genotype 1a, H77C) in Huh7 cells; EC50 expressed as class A/B

Row | SMILES | EC50
23 | O=C(NCC1(CNC(=O)c2ccc(Nc3nc(NC4(c5ccc(Cl)cc5)CC4)nc(OCC(F)(F)F)n3)cc2)CC1)C(=O)Nc1cccc(F)c1 [Compound 3001] | 0.01 to 10 nM
24 | CNC(=O)CCc1ccc(NC(=O)C(=O)NCC(C)(C)CNC(=O)c2ccc(Nc3nc(NC4(c5ccc(Cl)cc5)CC4)nc(OCC(F)(F)F)n3)cc2)cc1 [Compound 3025] | 0.01 to 10 nM
